Test [1] concerns the target NAMPT (human, recombinant, C-terminally His-tagged) (Homo sapiens, UniProt P43490). Description: Time-Resolved Fluorescence Resonance Energy Transfer (TR-FRET) Binding Assay of NAMPT. Conditions: without substrates; 6.8 nM NAMPT, 200 nM probe, 3 hours equilibration. An outline of the steps: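 A TR-FRET probe-displacement assay used 6.8 nM His-tagged recombinant human NAMPT, 200 nM Oregon Green 488-labelled nicotinamide-competitive probe and 1 nM Tb-anti-His antibody. Buffer was HEPES pH 7.5 with NaCl, MgCl2, DTT and glycerol, plus 2% DMSO, equilibrated 3 h at room temperature. Em520/Em495 ratios, normalized to controls, gave IC50 by four-parameter logistic fit.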

For a further test, the system named is PC3 cells. As to the kind of experiment: NAMPT Cell Proliferation Assay. Particulars: Homo sapiens, PC-3, 120 h, 5 days incubation, cell viability by Cell Titer Glo. The class given is cell-based. An outline of the steps:
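IC50 values derive from sigmoidal dose-response fits of percent inhibition of PC3 viability, measured by luminescence after 5 days of compound treatment. Cells (500/well, RPMI containing 10% heat-inactivated FBS) are allowed to attach overnight, and compounds are tested at 10-fold dilutions between 10 μM and 1×10^−5 μM.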
(ATP-based viability assays read luminescence as a measure of living cells.)

For another test, the target named is NAMPT (Homo sapiens, UniProt P43490). As to the kind of experiment: TR-FRET Binding Assay of NAMPT with PRPP. Conditions: with 200 μM PRPP and 2.5 mM ATP; 2 nM NAMPT, 2 nM probe, 16 hours equilibration. An outline of the steps:
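Human NAMPT (2 nM) with 2 nM probe and 1 nM Tb-anti-His antibody, plus 200 μM PRPP and 2.5 mM ATP, 2% DMSO. TR-FRET read after 16 h equilibration, permitting possible enzymatic modification of test compounds; data processing as for the substrate-free format.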

The structures appear in SMILES notation.

Sequence of NAMPT (P43490 whole entry): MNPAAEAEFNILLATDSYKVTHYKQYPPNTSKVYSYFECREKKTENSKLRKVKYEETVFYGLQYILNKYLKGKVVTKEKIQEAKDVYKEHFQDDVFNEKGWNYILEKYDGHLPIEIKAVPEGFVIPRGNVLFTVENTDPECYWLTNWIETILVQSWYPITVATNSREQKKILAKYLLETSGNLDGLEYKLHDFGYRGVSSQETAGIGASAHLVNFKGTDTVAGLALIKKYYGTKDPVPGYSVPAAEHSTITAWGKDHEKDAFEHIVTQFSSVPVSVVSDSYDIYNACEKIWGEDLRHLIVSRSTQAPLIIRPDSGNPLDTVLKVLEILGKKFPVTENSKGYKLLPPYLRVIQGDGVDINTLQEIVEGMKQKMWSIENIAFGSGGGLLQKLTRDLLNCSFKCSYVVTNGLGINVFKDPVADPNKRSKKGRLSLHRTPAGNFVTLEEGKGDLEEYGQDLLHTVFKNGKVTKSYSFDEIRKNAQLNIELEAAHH
Sequence of NAMPT (human, recombinant, C-terminally His-tagged) (P43490 whole entry): as above

A word on the IC50: it is the point on the concentration scale where inhibition reaches its midpoint. For the compound `O=C(NCc1ccn2ccnc2c1)c1ccc(C2(O)CCOCC2)s1` [Example 399, 5-(4-hydroxytetrahydro-2H-pyran-4-yl)-N-(imidazo[1,2-a]pyridin-7-ylmethyl)thiophene-2-carboxamide], the IC50 was found to be 9500 nM in test [1], 7680 nM in the test on PC3 cells and 1.54 nM at NAMPT.

On to `O=C(NCc1ccn2ccnc2c1)c1ccc(C2CN(C(=O)c3cccc(F)c3)C2)cc1` [Example 640, 4-[1-(3-fluorobenzoyl)azetidin-3-yl]-N-(imidazo[1,2-a]pyridin-7-ylmethyl)benzamide], for which the IC50 in test [1] amounted to 170 nM; with PC3 cells, 50 nM; at NAMPT, 0.817 nM.

As to `O=C(NCc1ccn2ccnc2c1)Nc1ccc(OC2CCN(C(=O)c3cc(F)cc(F)c3)CC2)cc1` [Example 730, 1-(4-{[1-(3,5-difluorobenzoyl)piperidin-4-yl]oxy}phenyl)-3-(imidazo[1,2-a]pyridin-7-ylmethyl)urea], the IC50 in test [1] is 489 nM; with PC3 cells it was 29.5 nM; at NAMPT, 0.847 nM.

For `O=C(NCc1ccn2ccnc2c1)Nc1ccc(OC2CCN(C(=O)[C@H]3CCCO3)CC2)cc1` [Example 448, 1-(imidazo[1,2-a]pyridin-7-ylmethyl)-3-[4-({1-[(2R)-tetrahydrofuran-2-ylcarbonyl]piperidin-4-yl}oxy)phenyl]urea], the results for the concentration for half-maximal inhibition (IC50) (in test [1]; in the test on PC3 cells; on NAMPT) were 175 nM, 67.8 nM and 0.176 nM, respectively.

Take `O=C(NCc1ccn2ccnc2c1)c1ccc(C2=CCN(S(=O)(=O)c3ccccc3)CC2)o1` [Example 801, N-(imidazo[1,2-a]pyridin-7-ylmethyl)-5-[1-(phenylsulfonyl)-1,2,3,6-tetrahydropyridin-4-yl]furan-2-carboxamide]: the IC50 was 866 nM in test [1], 57.3 nM in the test on PC3 cells and 1 nM on NAMPT.

On to `O=C(Nc1ccc(C(=O)NCCc2ccccc2)cc1)Nc1ccc2nccn2c1` [Example 4, 4-[(imidazo[1,2-a]pyridin-6-ylcarbamoyl)amino]-N-(2-phenylethyl)benzamide], for which the results for the IC50 (in test [1]; in the test with PC3 cells; at NAMPT) were 413 nM, 935 nM and 0.516 nM, respectively.

With `CC(C)(O)Cn1cc(-c2ccc(C(=O)NCc3ccc4ncnn4c3)s2)cn1` [Example 621, 5-[1-(2-hydroxy-2-methylpropyl)-1H-pyrazol-4-yl]-N-([1,2,4]triazolo[1,5-a]pyridin-6-ylmethyl)thiophene-2-carboxamide], the half-inhibitory concentration (IC50) was 114 nM in test [1], 25.3 nM in the test with PC3 cells and 5.42 nM on NAMPT.

In the case of `CC(C)COC(=O)N1CCC(c2ccc(C(=O)NCc3ccn4ccnc4c3)s2)CC1` [Example 571, 2-methylpropyl 4-{5-[(imidazo[1,2-a]pyridin-7-ylmethyl)carbamoyl]thiophen-2-yl}piperidine-1-carboxylate], the figures for the IC50 (in test [1]; in the test on PC3 cells; on NAMPT) were 41.7 nM, 22.9 nM and 0.494 nM, respectively.

For the compound `O=C(CC1CCOCC1)Nc1ccc(C(=O)NCc2ccn3ccnc3c2)cc1` [Example 208, N-(imidazo[1,2-a]pyridin-7-ylmethyl)-4-[(tetrahydro-2H-pyran-4-ylacetyl)amino]benzamide], the IC50 in test [1] is 404 nM; with PC3 cells, 84.9 nM; on NAMPT, 0.169 nM.

Consider `O=C(NCc1ccn2ccnc2c1)c1ccc(C2CCN(C(=O)c3ccccc3F)C2)cc1` (stereo not drawn) [Example 589, 4-[1-(2-fluorobenzoyl)pyrrolidin-3-yl]-N-(imidazo[1,2-a]pyridin-7-ylmethyl)benzamide], for which the concentration for half-maximal inhibition (IC50) in test [1] worked out at 16.1 nM; in the test on PC3 cells, 1.31 nM; at NAMPT, 0.887 nM.

Turning to `O=C(NCc1ccn2ccnc2c1)c1ccc(C2CCN(C(=O)c3cccs3)C2)s1` (stereo not drawn) [Example 786, N-(imidazo[1,2-a]pyridin-7-ylmethyl)-5-[1-(thiophen-2-ylcarbonyl)pyrrolidin-3-yl]thiophene-2-carboxamide], the IC50 in test [1] is 44.4 nM; in the test with PC3 cells, 7.51 nM; on NAMPT it was 0.484 nM.

In the case of `O=C(Nc1ccc(C(=O)NCCCN2CCOCC2)cc1)Nc1ccc2nccn2c1` [Example 18, 4-[(imidazo[1,2-a]pyridin-6-ylcarbamoyl)amino]-N-[3-(morpholin-4-yl)propyl]benzamide], the IC50 was found to be 2730 nM in test [1], 360 nM in the test with PC3 cells and 0.418 nM on NAMPT.

Consider `O=C(NCc1ccn2ccnc2c1)Nc1ccc(C2CCN(C(=O)CC3CCOCC3)C2)cc1` (stereo not drawn) [Example 391, 1-(imidazo[1,2-a]pyridin-7-ylmethyl)-3-{4-[1-(tetrahydro-2H-pyran-4-ylacetyl)pyrrolidin-3-yl]phenyl}urea], for which the concentration for half-maximal inhibition (IC50) was determined as 171 nM in test [1], 78.4 nM in the test with PC3 cells and 0.227 nM on NAMPT.

`CC(C)(C)OC(=O)N1CC=C(c2ccc(C(=O)NCc3ccc4nccn4c3)cc2)CC1` [Example 83, tert-butyl 4-{4-[(imidazo[1,2-a]pyridin-6-ylmethyl)carbamoyl]phenyl}-3,6-dihydropyridine-1(2H)-carboxylate]: the 50% inhibitory concentration (IC50) in test [1] worked out at 899 nM; with PC3 cells, 24.3 nM; on NAMPT it was 2.3 nM.

In the case of `CC(C)(O)Cn1cc(-c2ccc(C(=O)NCc3ccn4ccnc4c3)s2)cn1` [Example 182, 5-[1-(2-hydroxy-2-methylpropyl)-1H-pyrazol-4-yl]-N-(imidazo[1,2-a]pyridin-7-ylmethyl)thiophene-2-carboxamide], the half-inhibitory concentration (IC50) in test [1] turned out to be 139 nM; with PC3 cells, 1.37 nM; at NAMPT it was 0.4 nM.

For `O=C(Nc1ccc(C2CCN(C(=O)CC3CCOC3)CC2)cc1)Nc1ccc2nccn2c1` (stereo not drawn) [Example 110, 1-imidazo[1,2-a]pyridin-6-yl-3-{4-[1-(tetrahydrofuran-3-ylacetyl)piperidin-4-yl]phenyl}urea], the results for the half-maximal inhibitory concentration (IC50) (in test [1]; in the test with PC3 cells; at NAMPT) were 423 nM, 202 nM and 0.174 nM, respectively.

Turning to `O=C(NCc1ccn2ccnc2c1)Nc1ccc(O[C@@H]2CCN(C(=O)c3cc(F)cc(F)c3)C2)cc1` [Example 694, 1-(4-{[(3R)-1-(3,5-difluorobenzoyl)pyrrolidin-3-yl]oxy}phenyl)-3-(imidazo[1,2-a]pyridin-7-ylmethyl)urea], the results for the IC50 (in test [1]; with PC3 cells; on NAMPT) were 163 nM, 24.7 nM and 1.12 nM, respectively.

In the case of `O=C(NCc1ccn2ccnc2c1)Nc1ccc(O[C@@H]2CCN(C(=O)c3ccc(F)cc3F)C2)cc1` [Example 692, 1-(4-{[(3R)-1-(2,4-difluorobenzoyl)pyrrolidin-3-yl]oxy}phenyl)-3-(imidazo[1,2-a]pyridin-7-ylmethyl)urea], the IC50 in test [1] was found to be 83.9 nM; in the test on PC3 cells, 19.8 nM; at NAMPT it was 1.19 nM.

Consider `O=C(NCc1ccn2ccnc2c1)c1ccc(-c2cnn(CC3CCCS(=O)(=O)C3)c2)s1` (stereo not drawn) [Example 344, 5-{1-[(1,1-dioxidotetrahydro-2H-thiopyran-3-yl)methyl]-1H-pyrazol-4-yl}-N-(imidazo[1,2-a]pyridin-7-ylmethyl)thiophene-2-carboxamide], for which the figures for the IC50 (in test [1]; in the test with PC3 cells; at NAMPT) were 36 nM, 7.46 nM and 0.169 nM, respectively.

Take `CC(C)Cn1cc(-c2ccc(NC(=O)Nc3ccc4nccn4c3)cc2)cn1` [Example 51, 1-imidazo[1,2-a]pyridin-6-yl-3-{4-[1-(2-methylpropyl)-1H-pyrazol-4-yl]phenyl}urea]: the results for the half-inhibitory concentration (IC50) (in test [1]; in the test with PC3 cells; at NAMPT) were 264 nM, 83 nM and 0.524 nM, respectively.

As to `O=C(NCc1ccn2ccnc2c1)c1ccc(O[C@@H]2CCN(C(=O)c3ccccc3)C2)cc1` [Example 493, 4-{[(3R)-1-benzoylpyrrolidin-3-yl]oxy}-N-(imidazo[1,2-a]pyridin-7-ylmethyl)benzamide], the results for the IC50 (in test [1]; with PC3 cells; at NAMPT) were 1290 nM, 486 nM and 0.455 nM, respectively.

Consider `CC(C)(O)CNC(=O)c1ccc(NC(=O)Nc2ccc3nccn3c2)cc1` [Example 13, N-(2-hydroxy-2-methylpropyl)-4-[(imidazo[1,2-a]pyridin-6-ylcarbamoyl)amino]benzamide], for which the IC50 in test [1] was 653 nM; in the test with PC3 cells, 1170 nM; on NAMPT it was 0.663 nM.

Consider `O=C(NCc1ccn2ccnc2c1)c1ccc(-c2cnn(CC3CCOC3)c2)s1` (stereo not drawn) [Example 252, N-(imidazo[1,2-a]pyridin-7-ylmethyl)-5-[1-(tetrahydrofuran-3-ylmethyl)-1H-pyrazol-4-yl]thiophene-2-carboxamide], for which the IC50 in test [1] is 37.4 nM; with PC3 cells, 1.91 nM; at NAMPT, 0.274 nM.

On to `O=C(NCc1ccn2ccnc2c1)c1ccc(C2CCN(C(=O)c3cccnc3)CC2)cc1` [Example 537, N-(imidazo[1,2-a]pyridin-7-ylmethyl)-4-[1-(pyridin-3-ylcarbonyl)piperidin-4-yl]benzamide], for which the figures for the IC50 (in test [1]; with PC3 cells; on NAMPT) were 461 nM, 43.1 nM and 0.23 nM, respectively.

Regarding `O=C(NCc1ccn2ccnc2c1)c1ccc(O[C@H]2CCN(C(=O)C3CC3)C2)cc1` [Example 352, 4-{[(3S)-1-(cyclopropylcarbonyl)pyrrolidin-3-yl]oxy}-N-(imidazo[1,2-a]pyridin-7-ylmethyl)benzamide], the IC50 in test [1] was > 10000 nM; in the test with PC3 cells, 9800 nM; on NAMPT, 1.06 nM.

Source of the values: patent US9187472B2 (AbbVie Inc., priority 2012, dated 2015).
